Converted amounts (≈) assume the structure as drawn. “And” between values parts separate entries of the source, which are not always exact repeats. Identical values can stand only once. Like-named read-outs stand apart in the source and are kept apart here.
What was measured:
Kinetic solubility = format: physicochemical; conditions: aqueous buffer, kinetic from dmso stock; 100 mM potassium phosphate buffer, 37 °C
Protocol: Test compound was added to 100 mM potassium phosphate buffer and incubated at 37 °C for at least 20 h in a heater-shaker. After incubation, the samples were centrifuged at 3000 × g at 37 °C for 30 min to pellet insoluble material and an aliquot of the supernatant was taken for analysis. After dilution of the sample, the concentration of dissolved compound was quantified by liquid chromatography coupled to triple quadrupole mass spectrometry (LC-MS/MS).

C57BL/6 J mice = assay: Open-field test (locomotion and thigmotaxis); format: in vivo, mouse; parameters: Total distance travelled in 50 mins (Figure 6a) / Open-field test, locomotion over time (sheet 6b) / Open-field test, thigmotaxis, whole session (sheet 6c): unit not given here; conditions: for Total distance travelled in 50 mins (Figure 6a) / Open-field test, locomotion over time (sheet 6b) / Open-field test, thigmotaxis over time (sheet 6d) / Open-field test, thigmotaxis, whole session (sheet 6c): individual mice
Protocol: (§1) Adult […] C57BL/6 J mice (3-6 months old) were provided by Charles River. Both females and males (15 females and 9 males) were used in this study. Sex was evenly distributed across experimental groups. Sex was not considered in the study design or analysis, as no reports indicate differential expression levels of GPR139 between male and female mice. They were housed with ad libitum food and water, in a temperature and humidity-controlled environment under a standard 12 h light/dark cycle. The experiments were performed in agreement with the European Council Directive (86/609/EEC) and approved by the local Animal Ethics Committee at Karolinska Institute (3218-2022). All efforts were made to minimize suffering and the number of animals used. Mice were treated with either 10% DMSO + 10% solutol HS-15 + 80% saline (vehicle, n = 8), compound 1.5 (n = 8, 30 mg/kg i.p.), or JNJ-63533054 (n = 8, 30 mg/kg i.p.), both of which were dissolved in 10% DMSO + 10% solutol HS-15 + 80% saline. Mice were placed in an open field arena 10 min after the injection and recorded for 50 min. Total distance travelled and the time spent in the periphery arena were measured using an automated video tracking system (EthoVision XT 11.5; Noldus). One-way ANOVA followed by Dunnett’s multiple comparisons test and Two-way ANOVA followed by Tukey’s multiple comparisons test were used. Brain and blood samples were taken immediately after the locomotion test. The brain samples were quickly frozen, and blood was drawn from the cervical vein upon decapitation into EP tubes. The samples were immediately centrifuged for 10 min at 3000 × g at 4 °C, and the plasma was transferred into clean polypropylene tubes. All samples were stored at −80 °C before analysis.

[1] = Bioanalysis of compounds in mouse plasma and brain; format: in vivo; conditions: one hour after 30 mg/kg i.p.; for concentration at 1 h: intraperitoneal
Protocol: as §1
1.5(S) and JNJ-63533054, and the internal standard warfarin, were quantified in plasma and brain tissue samples, using ultraperformance liquid chromatography-tandem mass spectrometry (UPLC-MS/MS). Samples, respective blanks, standards, and quality controls (QCs) were included in each bioanalytical run. For both compounds, the calibration curves in plasma included standards at 0.5–10 µM, and QCs at 1.9–7.6 µM, and those in brain tissue homogenate included standards at 1–25 µM, and QCs at 1–20 µM.
Plasma samples were first diluted 1:2 (v:v) in blank plasma on a 96-well plate (Corning). Thereafter, the samples, along with blank plasma, standards, and QCs, were precipitated by adding 180 µL ice-cold acetonitrile containing 100 nM warfarin to 20 µL sample. Samples were vortexed and centrifuged at 2465 × g, at 4 °C, for 20 min (Centrifuge 5810 R, Eppendorf, Germany). The supernatants were transferred to a new 96-well plate and 2 µL were injected onto the UPLC-column. One hemisphere of the brains was homogenized 1:4 (w:v) with 0.1 % formic acid in 1:1 acetonitrile and methanol (v:v) in tubes containing ceramic beads (Precellys® Hard Tissue Homogenizing CK28 (inert 2.8 ceramic, zirconium oxide, beads), 2 mL, polypropylene co-polymer, Bertin Technologies). The mechanical homogenization was performed using a Minilys homogenizer (Bertin Technologies, France) for 30 s at the highest speed (5000 rpm). The tubes were centrifuged at 5204 × g for 7 min, and the supernatant was transferred to an Eppendorf tube. Subsequently, brain homogenate supernatants, along with supernatants from blank brain homogenate, standards, and QCs, were treated as described for diluted plasma samples. […]

[2] = parameters: method as in PMID 26349500; conditions: first hour after treatment; cited from earlier work

| SMILES | solubility kinetic (Kinetic solubility) [µM] | Total distance travelled in 50 mins (Figure 6a) (C57BL/6 J mice; 30 mg/kg i.p.) | Open-field test, locomotion over time (sheet 6b) (C57BL/6 J mice; 5 mins) | Open-field test, thigmotaxis over time (sheet 6d) (C57BL/6 J mice; 5 mins, in % (unit assumed)) | Open-field test, locomotion over time (sheet 6b) (C57BL/6 J mice; 10 mins) | Open-field test, thigmotaxis over time (sheet 6d) (C57BL/6 J mice; 10 mins, in % (unit assumed)) | Open-field test, locomotion over time (sheet 6b) (C57BL/6 J mice; 15 mins) | Open-field test, thigmotaxis over time (sheet 6d) (C57BL/6 J mice; 15 mins) | Open-field test, locomotion over time (sheet 6b) (C57BL/6 J mice; 20 mins) | Open-field test, thigmotaxis over time (sheet 6d) (C57BL/6 J mice; 20 mins) | Open-field test, locomotion over time (sheet 6b) (C57BL/6 J mice; 25 mins) | Open-field test, thigmotaxis over time (sheet 6d) (C57BL/6 J mice; 25 mins) | Open-field test, locomotion over time (sheet 6b) (C57BL/6 J mice; 30 mins) | Open-field test, thigmotaxis over time (sheet 6d) (C57BL/6 J mice; 30 mins) | Open-field test, locomotion over time (sheet 6b) (C57BL/6 J mice; 35 mins) | Open-field test, thigmotaxis over time (sheet 6d) (C57BL/6 J mice; 35 mins) | Open-field test, locomotion over time (sheet 6b) (C57BL/6 J mice; 40 mins) | Open-field test, locomotion over time (sheet 6b) (C57BL/6 J mice; 45 mins) | Open-field test, thigmotaxis over time (sheet 6d) (C57BL/6 J mice; 45 mins) | Open-field test, locomotion over time (sheet 6b) (C57BL/6 J mice; 50 mins) | also measured |
| --- | --- | --- | --- | --- | --- | --- | --- | --- | --- | --- | --- | --- | --- | --- | --- | --- | --- | --- | --- | --- | --- |
| Cc1cscc1-c1nc(CC(=O)N[C@@H](C)c2ccccc2)no1 [1.1(S)] | 13 (≈ 4.26 µg/mL) | – | – | – | – | – | – | – | – | – | – | – | – | – | – | – | – | – | – | – | – |
| CC(NC(=O)CNC(=O)c1cccc(Cl)c1)c1ccccc1 (stereo not drawn) [JNJ-63533054, reference compound] | – | 3359.39 and 1792.13 and 2582.49 and 3979.72 and 2080.85 and 9982.78 and 3772.48 and 918.903 | 932.272 and 989.458 and 1696.51 and 1348.86 and 505.51 and 1391.08 and 1396.99 and 852.786 | 70.24 and 93.24 and 86.6 and 72.9333 and 95.6533 and 59.4533 and 79.16 and 62.2 | 809.521 and 300.737 and 1208.9 and 562.14 and 33.766 and 906.8 and 199.588 and 129.938 | 97.5867 and 98.7467 and 63.5867 and 94.9733 and 100 and 78.9333 and 98.0533 and 99.9733 | 194.752 and 21.7885 and 924.739 and 354.313 and 27.675 and 233.464 and 23.6513 and 7.655 | 98.8933 and 100 (4×) and 93.1733 and 95.84 and 98.8533 | 171.669 and 49.3834 and 612.36 and 167.407 and 0 and 187.813 and 0.8234 and 102.119 | 99.9467 and 100 (4×) and 97.5333 and 99.0133 and 99.7333 | 630.708 and 147.757 and 783.223 and 246.73 and 0.6166 and 0.4386 and 0.4195 and 141.542 | 94.8 and 100 (5×) and 94.6667 and 96.8533 | 4.719 and 265.963 and 938.142 and 27.3973 and 11.6817 and 61.4941 and 0 and 205.37 | 100 (5×) and 97.44 and 85.8667 and 98.56 | 3.326 and 8.572 and 1042.9 and 433.751 and 7.486 and 2.001 and 0.4323 and 246.216 | 100 (5×) and 84.7333 and 92.4267 and 94.5867 | 521.05 and 1.596 and 845.25 and 8.083 and 7.72 and 4.549 and 0.4103 and 0.9443 | 294.43 and 290.485 and 1172.17 and 477.116 and 34.0014 and 4.204 and 168.331 and 0.6994 | 98.6133 and 97.52 and 87.88 and 86.5333 and 99.8133 and 100 (2×) and 97.44 | 417.274 and 5.107 and 758.587 and 146.686 and 290.447 and 567.543 and 1.48 and 895.221 | thigmotaxis (time in the periphery) (C57BL/6 J mice; 30 mg/kg i.p., vs vehicle): spent more time in the periphery compared to the vehicle group; total distance travelled in the open field arena (C57BL/6 J mice; 30 mg/kg i.p., vs vehicle): results similar to those obtained for JNJ-63533054; Open-field test, thigmotaxis over time (sheet 6d) (C57BL/6 J mice; 40 mins): 97.24 and 100 (6×) and 95.16; Open-field test, thigmotaxis over time (sheet 6d) (C57BL/6 J mice; 50 mins): 94.5733 and 100 (2×) and 95.4133 and 11.7333 and 93.0667 and 88.9333 and 83.48; Open-field test, thigmotaxis, whole session (sheet 6c) (C57BL/6 J mice): 97.4653 and 94.024 and 95.1893 and 98.6947 and 88.4613 and 85.0307 and 98.8533 and 92.4467; concentration at 1 h ([1]; both sexes, C57BL/6 J, brain, read-out: total brain tissue concentration (Cbrain)): 24.8 µM; Kp at 1 h ([1]; both sexes, C57BL/6 J, brain/plasma, ip, single time point, read-out: total brain-to-plasma concentration ratio (Kp,brain)): 1.21 ± 0.12; concentration at 1 h ([1]; both sexes, C57BL/6 J, plasma, read-out: total plasma concentration (Cplasma)): 20.5 µM; total brain tissue concentration (Cbrain) [1]: 24.8 ± 6.2 µM; total plasma concentration (Cplasma) [1]: 20.5 ± 5.3 µM; locomotor activity [2]: reduction in locomotor activity |
| Cc1nocc1-c1nc(CC(=O)NC(C)c2ccccc2)no1 (stereo not drawn) [Compound 1.5, CC(C1=CC=CC=C1)NC(CC2=NOC(C3=CON=C3C)=N2)=O] | 24 (≈ 7.5 µg/mL) | 3619.7 and 1516.14 and 932.636 and 2008.89 and 11482.8 and 3961.35 and 3158.61 and 1417.56 | 1534.71 and 1388.77 and 1295.98 and 638.887 and 1035.03 and 624.833 and 367.922 and 520.924 | 58.4267 and 77.1733 and 70.76 and 76.5333 and 44.5867 and 92.2133 and 78.64 and 98.2267 | 944.829 and 1045.75 and 698.474 and 211.083 and 1038.45 and 297.32 and 169.554 and 251.751 | 57.6133 and 89.2933 and 80.9867 and 94.6933 and 45.7733 and 98.64 and 97.4267 and 99.88 | 724.917 and 289.775 and 194.585 and 64.0034 and 579.982 and 38.8587 and 84.0131 and 202.975 | 79.1867 and 87.4267 and 100 (4×) and 67.5067 and 98.8533 | 43.478 and 341.627 and 152.166 and 3.91 and 301.879 and 49.2379 and 23.1583 and 69.7204 | 100 (5×) and 93.36 and 86.0667 and 98.92 | 1347.85 and 148.793 and 124.524 and 4.2615 and 37.5095 and 24.1112 and 17.1945 and 57.9976 | 75.1067 and 91.4267 and 100 (6×) | 1735.43 and 147.426 and 152.999 and 41.6297 and 15.7939 and 39.7283 and 43.7378 and 9.443 | 59.8267 and 99.36 and 97.2933 and 98.9733 and 100 (3×) and 97.7867 | 1485.83 and 64.3909 and 126.684 and 26.842 and 6.448 and 42.921 and 11.8566 and 37.4144 | 59.8533 and 100 (6×) and 99.44 | 1609.58 and 127.219 and 108.3 and 183.443 and 63.0073 and 201.855 and 59.5513 and 1.7683 | 1163.43 and 158.947 and 183.999 and 73.8724 and 168.393 and 37.8929 and 22.5543 and 382.596 | 64.4933 and 94.68 and 93.2533 and 100 (4×) and 88.1333 | 892.776 and 248.648 and 120.895 and 169.632 and 373.205 and 159.384 and 133.094 and 474.296 | Open-field test, thigmotaxis over time (sheet 6d) (C57BL/6 J mice; 40 mins, in % (unit assumed)): 53.72 and 93.1467 and 46.96 and 98.3067 and 97.52 and 91.5467 and 99.2 and 100; Open-field test, thigmotaxis over time (sheet 6d) (C57BL/6 J mice; 50 mins): 89.68 and 89.52 and 96.2267 and 100 (3×) and 96.5733 and 99.2533; Open-field test, thigmotaxis, whole session (sheet 6c) (C57BL/6 J mice): 98.132 and 97.2307 and 99.696 and 69.7907 and 91.5387 and 88.492 and 96.8507 and 82.616 |

From PMC12775434, “Ultra-large virtual screening unveils potent agonists of the neuromodulatory orphan receptor GPR139” (Nature Communications, 2025)
